# Laboratory results as given in patent publication US12617758B2, “Quinazoline derivative having FLT3 inhibitory activity, and use thereof” (INDUSTRY-UNIVERSITY COOPERATION FOUNDATION HANYANG …, priority 2020, dated 2026).
# Where two headings read alike, the source gives them in different places.
# Experiments:
# Type in all cases: biochemical
# [1] = target: T1, FLT (ITD) (Homo sapiens, UniProt P36888); experiment: FLT (ITD) enzyme activity (IC50)
# T1 sequence (P36888 1-993): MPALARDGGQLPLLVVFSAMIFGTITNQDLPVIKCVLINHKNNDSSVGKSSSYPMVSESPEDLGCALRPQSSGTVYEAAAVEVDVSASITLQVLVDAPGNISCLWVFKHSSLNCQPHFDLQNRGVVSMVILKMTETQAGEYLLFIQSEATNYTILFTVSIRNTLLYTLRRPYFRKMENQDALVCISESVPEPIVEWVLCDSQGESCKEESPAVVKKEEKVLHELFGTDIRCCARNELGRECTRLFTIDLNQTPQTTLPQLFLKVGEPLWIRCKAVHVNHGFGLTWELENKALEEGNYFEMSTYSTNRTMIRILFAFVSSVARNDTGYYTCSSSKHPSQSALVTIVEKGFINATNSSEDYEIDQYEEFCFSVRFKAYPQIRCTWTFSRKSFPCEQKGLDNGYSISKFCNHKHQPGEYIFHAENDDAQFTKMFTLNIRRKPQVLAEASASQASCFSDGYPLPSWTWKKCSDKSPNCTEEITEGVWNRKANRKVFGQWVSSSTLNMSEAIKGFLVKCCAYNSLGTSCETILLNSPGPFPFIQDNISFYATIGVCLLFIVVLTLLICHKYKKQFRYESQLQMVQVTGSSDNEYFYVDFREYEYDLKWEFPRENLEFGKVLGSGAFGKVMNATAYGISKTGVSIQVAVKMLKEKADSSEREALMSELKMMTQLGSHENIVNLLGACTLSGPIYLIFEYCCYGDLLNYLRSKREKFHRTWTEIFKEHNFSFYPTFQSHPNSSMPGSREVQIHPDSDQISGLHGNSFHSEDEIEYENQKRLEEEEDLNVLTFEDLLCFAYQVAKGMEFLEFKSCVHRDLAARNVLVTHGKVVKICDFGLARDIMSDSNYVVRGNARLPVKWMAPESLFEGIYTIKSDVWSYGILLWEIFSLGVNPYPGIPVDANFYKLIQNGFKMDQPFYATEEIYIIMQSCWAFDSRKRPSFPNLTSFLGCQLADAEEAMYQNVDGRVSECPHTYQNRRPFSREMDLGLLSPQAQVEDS
# Description: Experimental Example 1. Measurement of FLT3 and FLT Enzyme Activity
# Changes in FLT3 and FLT enzyme activities by treatment with the quinazoline derivatives of the following Table 1 according to the present invention were confirmed by IC50.
# [2] = target: LCK (Homo sapiens, UniProt P06239); experiment: Kinase panel screening; conditions: single dose of 10 μM, read-out: % inhibition rate
# [3] = target: BTK (Homo sapiens, UniProt Q06187); experiment: Kinase panel screening; conditions: single dose of 10 μM, read-out: % inhibition rate
# [4] = target: ERK1 (Homo sapiens, UniProt P27361); experiment: Kinase panel screening; conditions: single dose of 10 μM, read-out: % inhibition rate
# [5] = target: BRAF (V599E) (Homo sapiens, UniProt P15056, V600E); experiment: Kinase panel screening; conditions: single dose of 10 μM, read-out: % inhibition rate
# [6] = target: c-Src (Homo sapiens, UniProt P12931); experiment: Kinase panel screening; conditions: single dose of 10 μM, read-out: % inhibition rate
# [7] = target: FLT3 (Y591_V592 ins VDFREYEYD) (Homo sapiens, UniProt P36888, INS591VDFREYEYD); experiment: Inhibitory activity against FLT3 mutants; conditions: insertion of 9 amino acids
# Description: (§1) Subsequently, the inhibitory activity of Compound 7d against other different FLT3 mutants was additionally investigated and is shown in Table 2. […] Further, Compound 7d was also strong against FLT3 mutations located in the TKD.
# [8] = target: FLT3 (F594_R595 ins R) (Homo sapiens, UniProt P36888, INS594R); experiment: Inhibitory activity against FLT3 mutants; conditions: insertion of 1 amino acid
# Description: as §1
# [9] = target: FLT3 (D835Y) (Homo sapiens, UniProt P36888, D835Y); experiment: Inhibitory activity against FLT3 mutants
# Description: as §1
# [10] = target: FLT3 (F594_R595 ins EY) (Homo sapiens, UniProt P36888, INS594EY); experiment: Inhibitory activity against FLT3 mutants; conditions: insertion of 2 amino acids
# Description: as §1
# [11] = target: RON/MST1R (Homo sapiens, UniProt Q04912); experiment: Kinase panel screening; conditions: single dose of 10 μM, read-out: % inhibition rate
# [12] = target: FLT1/VEGFR1 (Homo sapiens, UniProt P17948); experiment: Kinase panel screening; conditions: single dose of 10 μM, read-out: % inhibition rate
# [13] = target: LYN (Homo sapiens, UniProt P07948); experiment: Kinase panel screening; conditions: single dose of 10 μM, read-out: % inhibition rate
# [14] = target: KDR/VEGFR2 (Homo sapiens, UniProt P35968); experiment: Kinase panel screening; conditions: single dose of 10 μM, read-out: % inhibition rate
# KDR/VEGFR2, sequence (P35968 20-1356): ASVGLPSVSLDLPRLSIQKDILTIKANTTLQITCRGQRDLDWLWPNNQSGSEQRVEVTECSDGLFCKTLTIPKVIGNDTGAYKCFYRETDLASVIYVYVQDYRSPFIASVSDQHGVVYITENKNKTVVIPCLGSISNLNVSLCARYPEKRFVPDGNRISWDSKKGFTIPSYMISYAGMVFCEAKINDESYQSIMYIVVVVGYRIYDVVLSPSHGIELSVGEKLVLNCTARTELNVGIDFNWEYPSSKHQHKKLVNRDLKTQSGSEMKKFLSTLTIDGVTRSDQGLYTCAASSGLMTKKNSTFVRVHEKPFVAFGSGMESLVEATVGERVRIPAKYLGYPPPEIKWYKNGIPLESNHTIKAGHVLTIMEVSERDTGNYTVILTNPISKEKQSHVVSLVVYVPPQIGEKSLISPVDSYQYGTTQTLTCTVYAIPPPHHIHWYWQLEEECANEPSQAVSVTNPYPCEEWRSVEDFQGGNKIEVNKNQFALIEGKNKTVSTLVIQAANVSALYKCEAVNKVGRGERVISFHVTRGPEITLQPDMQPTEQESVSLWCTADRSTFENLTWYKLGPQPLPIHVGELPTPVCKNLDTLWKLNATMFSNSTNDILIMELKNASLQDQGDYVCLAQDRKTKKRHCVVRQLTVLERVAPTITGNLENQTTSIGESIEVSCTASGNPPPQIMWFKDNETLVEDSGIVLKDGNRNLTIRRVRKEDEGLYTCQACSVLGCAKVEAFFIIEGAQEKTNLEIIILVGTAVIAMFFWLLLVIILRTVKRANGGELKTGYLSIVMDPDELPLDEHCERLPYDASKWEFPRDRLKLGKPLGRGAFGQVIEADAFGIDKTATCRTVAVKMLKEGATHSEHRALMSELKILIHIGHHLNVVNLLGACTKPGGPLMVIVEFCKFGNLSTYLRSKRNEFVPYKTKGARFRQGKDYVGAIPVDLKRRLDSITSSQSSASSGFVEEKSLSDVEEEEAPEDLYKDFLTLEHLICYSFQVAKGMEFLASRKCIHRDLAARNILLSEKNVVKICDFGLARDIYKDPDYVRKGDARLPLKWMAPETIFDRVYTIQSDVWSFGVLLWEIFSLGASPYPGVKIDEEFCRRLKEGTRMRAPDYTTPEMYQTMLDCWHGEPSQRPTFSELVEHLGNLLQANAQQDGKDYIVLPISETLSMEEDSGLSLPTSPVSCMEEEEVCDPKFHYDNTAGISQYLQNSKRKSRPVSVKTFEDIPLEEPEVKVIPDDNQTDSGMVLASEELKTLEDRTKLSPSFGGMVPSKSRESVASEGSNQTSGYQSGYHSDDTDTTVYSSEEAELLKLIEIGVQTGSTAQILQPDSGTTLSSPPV
# c-Src, sequence (P12931 whole entry, species assumed): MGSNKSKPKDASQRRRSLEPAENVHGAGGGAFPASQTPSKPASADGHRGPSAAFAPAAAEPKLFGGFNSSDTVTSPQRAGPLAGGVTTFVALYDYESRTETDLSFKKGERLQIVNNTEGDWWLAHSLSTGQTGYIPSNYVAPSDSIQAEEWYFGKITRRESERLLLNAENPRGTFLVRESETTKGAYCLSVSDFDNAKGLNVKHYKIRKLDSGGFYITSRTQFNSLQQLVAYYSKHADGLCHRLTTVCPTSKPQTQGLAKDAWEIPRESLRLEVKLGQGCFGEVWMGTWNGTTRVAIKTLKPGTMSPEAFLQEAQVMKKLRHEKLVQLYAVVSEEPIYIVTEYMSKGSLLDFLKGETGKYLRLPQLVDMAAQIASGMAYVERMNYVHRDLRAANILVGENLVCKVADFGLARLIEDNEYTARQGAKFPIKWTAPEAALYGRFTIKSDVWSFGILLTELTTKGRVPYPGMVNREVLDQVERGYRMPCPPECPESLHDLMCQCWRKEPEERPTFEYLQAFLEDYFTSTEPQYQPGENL
# ERK1, sequence (P27361 whole entry, species assumed): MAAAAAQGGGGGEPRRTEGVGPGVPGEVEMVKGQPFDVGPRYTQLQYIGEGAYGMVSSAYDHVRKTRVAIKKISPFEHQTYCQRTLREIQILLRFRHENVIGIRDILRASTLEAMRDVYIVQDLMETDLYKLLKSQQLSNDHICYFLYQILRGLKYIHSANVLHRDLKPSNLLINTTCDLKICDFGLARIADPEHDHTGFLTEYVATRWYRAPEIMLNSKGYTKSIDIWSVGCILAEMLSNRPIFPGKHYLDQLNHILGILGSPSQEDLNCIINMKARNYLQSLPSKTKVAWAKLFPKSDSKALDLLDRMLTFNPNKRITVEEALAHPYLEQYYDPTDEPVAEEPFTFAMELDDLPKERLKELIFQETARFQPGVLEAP
# BTK, sequence (Q06187 whole entry, species assumed): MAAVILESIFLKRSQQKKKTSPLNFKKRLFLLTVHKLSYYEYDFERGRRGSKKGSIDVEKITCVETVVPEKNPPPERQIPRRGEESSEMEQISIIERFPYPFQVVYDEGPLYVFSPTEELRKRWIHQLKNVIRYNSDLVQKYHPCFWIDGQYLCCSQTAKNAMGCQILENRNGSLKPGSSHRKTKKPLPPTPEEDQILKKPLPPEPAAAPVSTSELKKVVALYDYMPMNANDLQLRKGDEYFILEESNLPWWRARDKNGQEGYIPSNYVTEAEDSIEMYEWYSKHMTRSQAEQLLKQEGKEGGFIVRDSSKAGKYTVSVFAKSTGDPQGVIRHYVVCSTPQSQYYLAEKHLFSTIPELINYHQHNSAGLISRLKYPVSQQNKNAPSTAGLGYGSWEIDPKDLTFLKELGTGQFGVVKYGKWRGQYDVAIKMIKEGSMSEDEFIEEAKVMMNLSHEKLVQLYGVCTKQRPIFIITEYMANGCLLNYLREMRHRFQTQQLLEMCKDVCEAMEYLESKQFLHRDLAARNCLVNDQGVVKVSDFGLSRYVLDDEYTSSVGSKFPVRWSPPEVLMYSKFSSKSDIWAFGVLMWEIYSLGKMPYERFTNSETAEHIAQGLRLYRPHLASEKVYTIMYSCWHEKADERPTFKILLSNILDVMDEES
# RON/MST1R, sequence (Q04912 25-1400): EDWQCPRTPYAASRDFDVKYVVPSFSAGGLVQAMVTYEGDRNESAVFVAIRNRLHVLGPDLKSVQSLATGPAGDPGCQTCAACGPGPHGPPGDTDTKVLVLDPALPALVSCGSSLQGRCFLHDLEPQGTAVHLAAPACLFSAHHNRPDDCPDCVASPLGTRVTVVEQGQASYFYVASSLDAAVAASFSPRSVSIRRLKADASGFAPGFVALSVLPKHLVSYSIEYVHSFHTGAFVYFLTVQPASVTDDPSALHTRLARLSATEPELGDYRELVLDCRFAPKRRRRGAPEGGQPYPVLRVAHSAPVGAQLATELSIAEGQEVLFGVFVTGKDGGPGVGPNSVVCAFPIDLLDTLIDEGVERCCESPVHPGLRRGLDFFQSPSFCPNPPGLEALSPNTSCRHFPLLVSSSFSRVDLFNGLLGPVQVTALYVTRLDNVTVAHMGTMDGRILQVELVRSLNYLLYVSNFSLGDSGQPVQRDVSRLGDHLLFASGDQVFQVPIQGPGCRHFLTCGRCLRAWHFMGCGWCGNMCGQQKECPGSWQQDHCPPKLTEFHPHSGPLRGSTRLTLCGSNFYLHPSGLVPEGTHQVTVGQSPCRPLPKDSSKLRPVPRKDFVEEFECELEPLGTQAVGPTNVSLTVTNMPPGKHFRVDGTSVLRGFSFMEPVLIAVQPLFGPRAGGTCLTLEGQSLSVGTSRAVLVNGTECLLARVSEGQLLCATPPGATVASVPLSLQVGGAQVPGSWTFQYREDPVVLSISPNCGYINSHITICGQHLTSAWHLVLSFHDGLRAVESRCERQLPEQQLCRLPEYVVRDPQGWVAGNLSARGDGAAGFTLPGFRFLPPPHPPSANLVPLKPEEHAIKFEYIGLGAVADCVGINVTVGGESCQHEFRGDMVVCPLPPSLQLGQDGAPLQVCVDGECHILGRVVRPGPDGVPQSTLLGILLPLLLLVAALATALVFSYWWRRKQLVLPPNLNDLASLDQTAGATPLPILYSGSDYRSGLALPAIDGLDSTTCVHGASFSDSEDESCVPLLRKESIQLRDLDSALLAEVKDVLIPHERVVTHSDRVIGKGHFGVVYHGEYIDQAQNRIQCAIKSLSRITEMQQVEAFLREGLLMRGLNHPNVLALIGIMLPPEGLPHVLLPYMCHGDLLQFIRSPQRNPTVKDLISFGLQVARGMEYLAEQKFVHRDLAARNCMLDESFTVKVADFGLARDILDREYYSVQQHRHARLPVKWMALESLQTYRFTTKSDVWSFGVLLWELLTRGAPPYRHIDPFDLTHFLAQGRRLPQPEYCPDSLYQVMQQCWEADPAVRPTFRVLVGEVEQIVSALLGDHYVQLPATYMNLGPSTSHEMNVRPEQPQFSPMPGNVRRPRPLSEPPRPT
# BRAF (V599E), sequence (P15056 416-766 V600E limits assumed, species assumed): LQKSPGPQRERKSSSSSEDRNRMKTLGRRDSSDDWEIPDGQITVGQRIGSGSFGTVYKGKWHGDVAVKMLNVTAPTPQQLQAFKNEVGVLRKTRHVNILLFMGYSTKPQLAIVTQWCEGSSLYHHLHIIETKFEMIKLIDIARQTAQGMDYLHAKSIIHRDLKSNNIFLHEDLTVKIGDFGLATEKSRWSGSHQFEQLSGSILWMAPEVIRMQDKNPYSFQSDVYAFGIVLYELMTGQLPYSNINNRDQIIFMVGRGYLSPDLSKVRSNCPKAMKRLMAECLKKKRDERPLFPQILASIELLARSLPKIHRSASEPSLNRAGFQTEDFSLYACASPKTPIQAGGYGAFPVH
structure (smiles),measurement,setting,value
"Cc1oncc1C(=O)Nc1ccc2cnc(-c3cc(N4CCN(C)CC4)cc(C(F)(F)F)c3)nc2c1 [Compound 7d, 5-methyl-N-(2-(3-(4-methylpiperazin-1-yl)-5-(trifluoromethyl)phenyl)quinazolin-7-yl)isoxazole-4-carboxamide]",IC50,[1]; read-out: FLT (ITD) IC50,< 3000 nM
same,IC50,[1]; read-out: IC50 against FLT-ITD,301 nM
same,inhibition at 10 µM,[2],19.7%
same,inhibition at 10 µM,[3],17.5%
same,inhibition at 10 µM,[4],15%
same,inhibition at 10 µM,[5],5.19%
same,inhibition at 10 µM,[6],14.6%
same,IC50,[7],728 nM
same,IC50,[8],524 nM
same,IC50,[9],228 nM
same,IC50,[10],495 nM
same,inhibition at 10 µM,[11],13.5%
same,inhibition at 10 µM,[12],5.23%
same,inhibition at 10 µM,[13],20.5%
same,inhibition at 10 µM,[14],16.8%
